Assay results taken from US20250092013A1, “PRODRUGS OF AXITINIB” (OCULAR THERAPEUTIX, INC., priority 2021, published 2025).
Values after ≈ are worked out from the molar mass of the structure shown.

Experiments:
[1] = Solubility testing in phosphate buffer saline pH 7.4 (HPLC with calibration curve); assay type: physicochemical
Protocol: Solubility testing was performed with the following test items and conditions: • Test items: axitinib (99.99% purity by HPLC); axitinib-N-succinoyloxymethyl prodrug (94.3% purity by HPLC); • Test media: phosphate buffer saline pH 7.4 • Incubation condition: 24 hour at 22° C. with continuous shaking • Test concentration: 1 mg/mL • Data analysis: Solubility of test item was determined by HPLC analysis with calibration curve

[2] = cited from earlier work

solubility at 24 h ([1]; 22 °C, pH 7.4, aqueous buffer, thermodynamic from solid) [µg/mL] | Solubility ([1]; phosphate buffer saline pH 7.4, 24 hour at 22° C. with continuous shaking, test concentration 1 mg/mL) [µg/mL] | solubility of the prodrug enhanced (fold vs axitinib) ([1]; relative to literature reported solubility of axitinib (about 0.2 mcg/mL)) [×] | SMILES | literature reported solubility [2]
< 0.78 | – | – | CNC(=O)c1ccccc1Sc1ccc2c(/C=C/c3ccccn3)n[nH]c2c1 [Axitinib, axitinib] | about 0.2 mcg/mL
– | 217.4 (≈ 421 µM) | ~1100 | CNC(=O)c1ccccc1Sc1ccc2c(/C=C/c3ccccn3)nn(COC(=O)CCC(=O)O)c2c1 [N-Succinoyloxymethyl Prodrug, axitinib-N-succinoyloxymethyl] | –
